Organism: Rattus norvegicus
Experiment: Open TG-GATES - Regimen: Single
Format: toxicity, organism-based, Sprague-Dawley
Parameters: regimen Single, gender Male, age 6 weeks
Details: in vivo, po, route gavage; for APTT / Bas / Eos / Fbg / Hb / Ht / Lym / MCH / MCHC / MCV / Mono / Neu / PT / Plat / RBC / Ret / WBC: tissue Blood; for KIDNEY_L / KIDNEY_R / KIDNEY_TOTAL: tissue Kidney; for ALP / ALT / AST / CRE / Cl / DBIL / GLC / IP / K / LDH / Na / PL / RALB / TBIL / TC / TG / TP / gamma-GTP: tissue Plasma
[1] = 5 mg/kg, 3 h, dose level Middle
[2] = 5 mg/kg, 6 h, dose level Middle
[3] = 5 mg/kg, 9 h, dose level Middle
[4] = 5 mg/kg, 24 h, dose level Middle
[5] = 15 mg/kg, 24 h, dose level High

## COc1cc2c(c(OC)c1OC)-c1ccc(OC)c(=O)cc1[C@@H](NC(C)=O)CC2 [COLCHICINE]
[1]
  APTT: 16.4 s
  Bas: 0%
  Eos: 0.8%
  Fbg: 217.6 mg/dL
  Hb: 13.6 g/dL
  Ht: 41.3%
  Lym: 83.2%
  MCH: 21.9 pg
  MCHC: 32.8%
  MCV: 66.5 fL
  Mono: 7.2%
  Neu: 9.2%
  PT: 12.1 s
  Plat: 112.7 x10_4/uL
  RBC: 622 x10_4/ul
  Ret: 9.5%
  WBC: 111.5 x10_2/uL
  KIDNEY_L: 0.9 g
  KIDNEY_R: 1 g
  KIDNEY_TOTAL: 1.9 g
  ALP: 915.6 IU/L
  ALT: 52.6 IU/L
  AST: 119.2 IU/L
  CRE: 0.4 mg/dL
  Cl: 103.4 meq/L
  DBIL: 0.046 mg/dL
  GLC: 193.4 mg/dL
  IP: 9.1 mg/dL
  K: 4.5 meq/L
  LDH: 248 IU/L
  Na: 139 meq/L
  PL: 133.8 mg/dL
  RALB: 3.7 g/dL
  TBIL: 0.4 mg/dL
  TC: 79.6 mg/dL
  TG: 53 mg/dL
  TP: 5.5 g/dL
  gamma-GTP: 1 IU/L
[2]
  TERMINAL_BW: 218.4 g
  APTT: 17.4 s
  Bas: 0%
  Eos: 0.6%
  Fbg: 205.2 mg/dL
  Hb: 13.5 g/dL
  Ht: 41.4%
  Lym: 72.2%
  MCH: 21 pg
  MCHC: 32.6%
  MCV: 64.3 fL
  Mono: 10.8%
  Neu: 16.2%
  PT: 12.5 s
  Plat: 107.8 x10_4/uL
  RBC: 644.8 x10_4/ul
  Ret: 8.9%
  WBC: 105.2 x10_2/uL
  KIDNEY_L: 1 g
  KIDNEY_R: 1 g
  KIDNEY_TOTAL: 1.9 g
  ALP: 1038.4 IU/L
  ALT: 103.8 IU/L
  AST: 216.8 IU/L
  CRE: 0.5 mg/dL
  Cl: 103.2 meq/L
  DBIL: 0.048 mg/dL
  GLC: 180.2 mg/dL
  IP: 9.4 mg/dL
  K: 4.6 meq/L
  LDH: 340.6 IU/L
  Na: 139.6 meq/L
  PL: 118.4 mg/dL
  RALB: 3.7 g/dL
  TBIL: 0.4 mg/dL
  TC: 64 mg/dL
  TG: 35.2 mg/dL
  TP: 5.5 g/dL
  gamma-GTP: 1 IU/L
[3]
  TERMINAL_BW: 217.1 g
  APTT: 16.7 s
  Bas: 0%
  Eos: 1%
  Fbg: 207.8 mg/dL
  Hb: 13.6 g/dL
  Ht: 41.3%
  Lym: 67.4%
  MCH: 21.5 pg
  MCHC: 32.9%
  MCV: 65.4 fL
  Mono: 12%
  Neu: 20.4%
  PT: 12.6 s
  Plat: 108.3 x10_4/uL
  RBC: 631.6 x10_4/ul
  Ret: 9.1%
  WBC: 93.9 x10_2/uL
  KIDNEY_L: 1 g
  KIDNEY_R: 1 g
  KIDNEY_TOTAL: 2 g
  ALP: 1040.6 IU/L
  ALT: 165.4 IU/L
  AST: 290.6 IU/L
  CRE: 0.5 mg/dL
  Cl: 103.4 meq/L
  DBIL: 0.098 mg/dL
  GLC: 191.6 mg/dL
  IP: 8.8 mg/dL
  K: 5.1 meq/L
  LDH: 265.2 IU/L
  Na: 137 meq/L
  PL: 137.6 mg/dL
  RALB: 3.7 g/dL
  TBIL: 0.4 mg/dL
  TC: 79.2 mg/dL
  TG: 32 mg/dL
  TP: 5.4 g/dL
  gamma-GTP: 2.2 IU/L
[4]
  TERMINAL_BW: 226.2 g
  APTT: 16.3 s
  Bas: 0%
  Eos: 1%
  Fbg: 208.6 mg/dL
  Hb: 13.6 g/dL
  Ht: 41.5%
  Lym: 78.4%
  MCH: 21.6 pg
  MCHC: 32.8%
  MCV: 65.8 fL
  Mono: 9.8%
  Neu: 10.8%
  PT: 11.2 s
  Plat: 117.7 x10_4/uL
  RBC: 631.6 x10_4/ul
  Ret: 7.6%
  WBC: 120.4 x10_2/uL
  KIDNEY_L: 1 g
  KIDNEY_R: 1 g
  KIDNEY_TOTAL: 2 g
  ALP: 975.4 IU/L
  ALT: 65.4 IU/L
  AST: 110.6 IU/L
  CRE: 0.6 mg/dL
  Cl: 104 meq/L
  DBIL: 0.064 mg/dL
  GLC: 191.8 mg/dL
  IP: 5.3 mg/dL
  K: 4.7 meq/L
  LDH: 116 IU/L
  Na: 138 meq/L
  PL: 125.4 mg/dL
  RALB: 3.7 g/dL
  TBIL: 0.4 mg/dL
  TC: 71.2 mg/dL
  TG: 58 mg/dL
  TP: 5.6 g/dL
  gamma-GTP: 1.2 IU/L
15 mg/kg, 3 h, dose level High
  TERMINAL_BW: 219.9 g
  APTT: 17.2 s
  Bas: 0%
  Eos: 0.8%
  Fbg: 212.4 mg/dL
  Hb: 13.4 g/dL
  Ht: 40.8%
  Lym: 76.2%
  MCH: 21.9 pg
  MCHC: 33%
  MCV: 66.3 fL
  Mono: 13%
  Neu: 10%
  PT: 12.3 s
  Plat: 111.2 x10_4/uL
  RBC: 614.8 x10_4/ul
  Ret: 9.9%
  WBC: 105.1 x10_2/uL
  KIDNEY_L: 1 g
  KIDNEY_R: 1 g
  KIDNEY_TOTAL: 2 g
  ALP: 859.4 IU/L
  ALT: 59.8 IU/L
  AST: 152.8 IU/L
  CRE: 0.5 mg/dL
  Cl: 105.2 meq/L
  DBIL: 0.03 mg/dL
  GLC: 184.8 mg/dL
  IP: 9.3 mg/dL
  K: 4.6 meq/L
  LDH: 377.8 IU/L
  Na: 138.6 meq/L
  PL: 113.4 mg/dL
  RALB: 3.7 g/dL
  TBIL: 0.4 mg/dL
  TC: 75.2 mg/dL
  TG: 21.4 mg/dL
  TP: 5.6 g/dL
  gamma-GTP: 2.4 IU/L
15 mg/kg, 6 h, dose level High
  TERMINAL_BW: 220.6 g
  APTT: 17.3 s
  Bas: 0%
  Eos: 0.8%
  Fbg: 215 mg/dL
  Hb: 14.5 g/dL
  Ht: 44.5%
  Lym: 69.6%
  MCH: 21.2 pg
  MCHC: 32.7%
  MCV: 65 fL
  Mono: 6.2%
  Neu: 24%
  PT: 14.1 s
  Plat: 109.9 x10_4/uL
  RBC: 684.6 x10_4/ul
  Ret: 8.3%
  WBC: 68.3 x10_2/uL
  KIDNEY_L: 1 g
  KIDNEY_R: 1 g
  KIDNEY_TOTAL: 2 g
  ALP: 1105.6 IU/L
  ALT: 257.8 IU/L
  AST: 651.4 IU/L
  CRE: 0.5 mg/dL
  Cl: 104.2 meq/L
  DBIL: 0.1 mg/dL
  GLC: 174.8 mg/dL
  IP: 9.5 mg/dL
  K: 4.8 meq/L
  LDH: 1373 IU/L
  Na: 139.8 meq/L
  PL: 101.2 mg/dL
  RALB: 3.7 g/dL
  TBIL: 0.5 mg/dL
  TC: 66.8 mg/dL
  TG: 12.2 mg/dL
  TP: 5.5 g/dL
  gamma-GTP: 2 IU/L
15 mg/kg, 9 h, dose level High
  TERMINAL_BW: 217.2 g
  APTT: 17.8 s
  Bas: 0%
  Eos: 0.6%
  Fbg: 203.8 mg/dL
  Hb: 14.9 g/dL
  Ht: 45.2%
  Lym: 50.6%
  MCH: 21.1 pg
  MCHC: 32.8%
  MCV: 64.3 fL
  Mono: 12.2%
  Neu: 36.8%
  PT: 14.8 s
  Plat: 99 x10_4/uL
  RBC: 704.2 x10_4/ul
  Ret: 7.7%
  WBC: 52.6 x10_2/uL
  KIDNEY_L: 1 g
  KIDNEY_R: 1 g
  KIDNEY_TOTAL: 1.9 g
  ALP: 1469.6 IU/L
  ALT: 302.8 IU/L
  AST: 623.8 IU/L
  CRE: 0.5 mg/dL
  Cl: 101.8 meq/L
  DBIL: 0.3 mg/dL
  GLC: 171 mg/dL
  IP: 8.1 mg/dL
  K: 4.7 meq/L
  LDH: 1091.2 IU/L
  Na: 137 meq/L
  PL: 126 mg/dL
  RALB: 3.8 g/dL
  TBIL: 0.6 mg/dL
  TC: 86.2 mg/dL
  TG: 9.4 mg/dL
  TP: 5.5 g/dL
  gamma-GTP: 2 IU/L
[5]
  TERMINAL_BW: 208.7 g
  APTT: 18 s
  Bas: 0%
  Eos: 0.6%
  Fbg: 171 mg/dL
  Hb: 15.6 g/dL
  Ht: 47.7%
  Lym: 73.4%
  MCH: 20.5 pg
  MCHC: 32.9%
  MCV: 62.4 fL
  Mono: 9.8%
  Neu: 16.2%
  PT: 12.5 s
  Plat: 121.1 x10_4/uL
  RBC: 763.8 x10_4/ul
  Ret: 6.3%
  WBC: 78.2 x10_2/uL
  KIDNEY_L: 1 g
  KIDNEY_R: 1 g
  KIDNEY_TOTAL: 2 g
  ALP: 1599.2 IU/L
  ALT: 160.4 IU/L
  AST: 350.8 IU/L
  CRE: 0.6 mg/dL
  Cl: 104 meq/L
  DBIL: 0.1 mg/dL
  GLC: 176 mg/dL
  IP: 7.8 mg/dL
  K: 5.2 meq/L
  LDH: 172.4 IU/L
  Na: 136.8 meq/L
  PL: 116.4 mg/dL
  RALB: 3.3 g/dL
  TBIL: 0.5 mg/dL
  TC: 60.8 mg/dL
  TG: 16.8 mg/dL
  TP: 5.1 g/dL
  gamma-GTP: 1.4 IU/L

— ChEMBL document CHEMBL3885861, “Open TG-GATES”
